Results: article PMC9719863 (Molecular Metabolism, 2022)
Read-outs that look alike come from different tables or passages of the source. *1 amine or outer side, *2 acyl side, *3 side chain or, on linkers, in order; H or OH if unused. Where a SMILES comes first, the peptide text is derived from it. Side-chain parts run from the residue outwards. [ ]: non-standard residue; d: D form. The star is where a group is joined. γGlu = O=C(O)[C@H](CCC(=O)[*:2])N[*:1]; Palmitoyl = CCCCCCCCCCCCCCCC(=O)*; PhLac = O=C(O)[C@@H](O)Cc1ccccc1

Assays:
hGIPR [1] = molecular target: T1, hGIPR (Homo sapiens, UniProt P48546); test: cAMP CRE-luciferase assay in BHK cells expressing GIPR; type: cell-based; details: agonist mode, without native ligand
T1 sequence (P48546 22-466): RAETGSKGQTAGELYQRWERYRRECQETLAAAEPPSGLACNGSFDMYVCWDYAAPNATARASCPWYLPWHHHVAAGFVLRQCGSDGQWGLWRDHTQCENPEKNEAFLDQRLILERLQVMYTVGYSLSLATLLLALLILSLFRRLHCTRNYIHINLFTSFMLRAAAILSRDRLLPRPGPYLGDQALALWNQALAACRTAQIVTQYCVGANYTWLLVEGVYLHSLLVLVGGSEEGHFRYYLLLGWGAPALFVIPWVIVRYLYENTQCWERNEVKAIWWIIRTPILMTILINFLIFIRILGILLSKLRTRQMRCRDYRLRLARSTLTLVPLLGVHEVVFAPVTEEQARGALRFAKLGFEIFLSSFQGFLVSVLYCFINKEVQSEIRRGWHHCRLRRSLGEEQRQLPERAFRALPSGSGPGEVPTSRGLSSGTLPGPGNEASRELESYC

mGIPR [2] = molecular target: T2, mGIPR (Mus musculus, UniProt Q0P543); type: binding
T2 sequence (Q0P543 19-460): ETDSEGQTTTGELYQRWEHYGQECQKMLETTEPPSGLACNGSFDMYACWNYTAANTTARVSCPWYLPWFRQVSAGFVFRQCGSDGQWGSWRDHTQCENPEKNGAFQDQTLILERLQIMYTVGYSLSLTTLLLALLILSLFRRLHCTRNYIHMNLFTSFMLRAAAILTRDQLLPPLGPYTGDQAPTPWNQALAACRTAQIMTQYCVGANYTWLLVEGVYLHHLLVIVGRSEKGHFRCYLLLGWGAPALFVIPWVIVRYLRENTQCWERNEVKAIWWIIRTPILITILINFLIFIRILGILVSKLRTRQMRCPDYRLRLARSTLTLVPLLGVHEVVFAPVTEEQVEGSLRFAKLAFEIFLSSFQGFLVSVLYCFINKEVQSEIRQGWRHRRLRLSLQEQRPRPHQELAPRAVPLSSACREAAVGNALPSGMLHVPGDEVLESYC

mGIPR [3] = molecular target: T2, mGIPR; test: cAMP CRE-luciferase assay in BHK cells expressing GIPR; type: cell-based; details: for Agonism at the mGIPR (cAMP production by peptide alone): agonist mode, without native ligand
hGIPR [4] = molecular target: T1, hGIPR; type: binding

| Compound | Agonism at the hGIPR (cAMP production by peptide alone) (hGIPR [1]) | IC50 (mGIPR [2]) | IC50 (mGIPR [3]) | Agonism at the mGIPR (cAMP production by peptide alone) (mGIPR [3]) | IC50 (hGIPR [4]) |
| --- | --- | --- | --- | --- | --- |
| CC[C@H](C)[C@H](NC(=O)[C@H](CO)NC(=O)[C@H](Cc1ccc(O)cc1)NC(=O)[C@H](CC(=O)O)NC(=O)[C@H](CO)NC(=O)[C@@H](NC(=O)[C@H](Cc1ccccc1)NC(=O)[C@@H](NC(=O)CNC(=O)[C@@H](N)CCC(=O)O)[C@@H](C)O)[C@@H](C)CC)C(=O)N[C@@H](C)C(=O)N[C@@H](CCSC)C(=O)N[C@@H](CC(=O)O)C(=O)N[C@@H](CCCCN)C(=O)N[C@H](C(=O)N[C@@H](Cc1c[nH]cn1)C(=O)N[C@@H](CCC(N)=O)C(=O)N[C@@H](CCC(N)=O)C(=O)N[C@@H](CC(=O)O)C(=O)N[C@@H](Cc1ccccc1)C(=O)N[C@H](C(=O)N[C@@H](CC(N)=O)C(=O)N[C@@H](Cc1c[nH]c2ccccc12)C(=O)N[C@@H](CC(C)C)C(=O)N[C@@H](CC(C)C)C(=O)N[C@@H](C)C(=O)N[C@@H](CCC(N)=O)C(=O)N[C@@H](CCCCN)C(N)=O)C(C)C)[C@@H](C)CC [Peptide 1, hGIP(3–30), reference compound] | partial agonism | 35.1 ± 16.9 nM | > 6000 nM | no significant agonism | – |
| CC[C@H](C)[C@H](NC(=O)[C@H](CO)NC(=O)[C@H](Cc1ccc(O)cc1)NC(=O)[C@H](CC(=O)O)NC(=O)[C@H](CO)NC(=O)[C@@H](NC(=O)[C@@H](O)Cc1ccccc1)[C@@H](C)CC)C(=O)N[C@@H](C)C(=O)N[C@@H](CC(C)C)C(=O)N[C@@H](CC(=O)O)C(=O)N[C@@H](CCCCN)C(=O)N[C@H](C(=O)N[C@@H](CCCNC(=N)N)C(=O)N[C@@H](CCC(N)=O)C(=O)N[C@@H](CCC(N)=O)C(=O)N[C@@H](CCC(=O)O)C(=O)N[C@@H](Cc1ccccc1)C(=O)N[C@H](C(=O)N[C@@H](CC(N)=O)C(=O)N[C@@H](Cc1c[nH]c2ccccc12)C(=O)N[C@@H](CC(C)C)C(=O)N[C@@H](CC(C)C)C(=O)N[C@@H](C)C(=O)N[C@@H](CCC(N)=O)C(=O)N[C@@H](CCCCN)C(=O)NCC(=O)O)C(C)C)[C@@H](C)CC [Peptide 5, [Pla6, L14, R18, E21] hGIP(6–31)] (H-[PhLac]ISDYSIALDKIRQQEFVNWLLAQKG-OH) | no significant agonism | 22.7 ± 7.9 nM | – | no significant agonism | 2.98 ± 1.68 nM |
| CCCCCCCCCCCCCCCC(=O)N[C@@H](CCC(=O)NCCCC[C@H](NC(=O)[C@H](Cc1ccc(O)cc1)NC(=O)[C@H](CC(=O)O)NC(=O)[C@H](CO)NC(=O)[C@@H](NC(=O)[C@@H](O)Cc1ccccc1)[C@@H](C)CC)C(=O)N[C@H](C(=O)N[C@@H](C)C(=O)N[C@@H](CC(C)C)C(=O)N[C@@H](CC(=O)O)C(=O)N[C@@H](CCCCN)C(=O)N[C@H](C(=O)N[C@@H](CCCNC(=N)N)C(=O)N[C@@H](CCC(N)=O)C(=O)N[C@@H](CCC(N)=O)C(=O)N[C@@H](CCC(=O)O)C(=O)N[C@@H](Cc1ccccc1)C(=O)N[C@H](C(=O)N[C@@H](CC(N)=O)C(=O)N[C@@H](Cc1c[nH]c2ccccc12)C(=O)N[C@@H](CC(C)C)C(=O)N[C@@H](CC(C)C)C(=O)N[C@@H](C)C(=O)N[C@@H](CCC(N)=O)C(=O)N[C@@H](CCCCN)C(=O)NCC(=O)O)C(C)C)[C@@H](C)CC)[C@@H](C)CC)C(=O)O [Peptide 8, [Pla6, L14, R18, E21] hGIP(6–31)-K11 (γE-C16)] (H-[PhLac]ISDYK([γGlu-Palmitoyl])IALDKIRQQEFVNWLLAQKG-OH) | negligible cAMP production as agonists | 1.55 ± 0.07 nM | – | negligible cAMP production as agonists | 0.5 ± 0.08 nM |
